Consider five substances from patent publication US7041280B2, “Aryl boronate functionalized polymers for treating obesity” (Genzyme Corporation, priority 2001, dated 2006).

This test has as its system fat absorption through lipase inhibition in rats. Conditions: rats gavaged with 4 mL olive oil emulsion with drug after 18 hour fast, intestinal contents after 8 hours; for In Vivo Infusion Assay in Rats ED50 (mg/g fat) or estimate: dose at half the maximum recoverable triglyceride; for In Vivo Infusion Assay in Rats Ed50 (mg/kg body wt) or estimate: dose per body weight. The procedure:
Compounds were evaluated in rats to determine their in vivo potency in inhibiting fat absorption through lipase inhibition. Rats were acclimated to the facility for approximately 1 week in individual wire-bottom cages and provided a standard chow diet and water ad libitum. […] Test compounds were dissolved in DMSO or deionized water. Drug solutions were mixed thoroughly in the olive oil emulsion just prior to administration. After 8 hours, rats were euthanized with CO2 and the intestines were removed. The intestinal contents were harvested from the lower half of the small intestine and the cecum. Contents were placed in separate, pre-weighed, 15 milliliter conical screw cap tubes in a (dry ice/alcohol bath) to maintain freezing temperature until the final freeze of all samples. Samples were stored at −80° C. until lyophilization.
Samples were freeze-dried and ground, then analyzed for triglyceride and fatty acid.
A 20 milligram aliquot of each sample was weighed and transferred to a 15 milliliters conical tube. 3 milliliters of hexane were added to each tube, which were capped and vortexed for 15 seconds at high speed. 3 milliliters of 1 N HCl were added and the samples were then subjected to wrist-action shaking for 1 hour. Samples were then centrifuged for 5 minutes at 3500 rpm and the hexane layer was collected. An aliquot of the hexane layer was diluted in hexane and analyzed for triglyceride, diglyceride and fatty acid by HPLC as described above.
The data was expressed as follows. The milligrams of intestinal contents that was extracted and the total number of milligrams collected were recorded. The milligrams/milliliters values obtained from the HPLC analysis were entered. The individual lipid components were calculated and expressed as total milligrams recovered. Dose units are expressed as the milligrams of drug per gram of oil administered to each rat. The ED50's were determined by extrapolating the dose value at half the maximum obtainable triglyceride recoverable in the assay.

As for “Poly(N-diethanolaminopropyl)acrylamide conjugated with 4-(14′-hydroxy-3′-thia-1′-ketotetradecyl)-3-fluorophenylboronic acid [Polymer 5]”, the “In Vivo Infusion Assay in Rats ED50 (mg/g fat) or estimate” value was 50 mg/g fat and the “In Vivo Infusion Assay in Rats Ed50 (mg/kg body wt) or estimate” value was 375 mg/kg body wt.
Take “Poly(N-diethanolaminopropyl)acrylamide conjugated with 4-(14′-hydroxy-3′-thia-1′-ketotetradecyl)phenylboronic acid [Polymer 6]”: the “In Vivo Infusion Assay in Rats ED50 (mg/g fat) or estimate” value was 36 mg/g fat and the “In Vivo Infusion Assay in Rats Ed50 (mg/kg body wt) or estimate” value is on record as 270 mg/kg body wt.
Consider “poly(N-diethanolaminopropyl)acrylamide conjugated with 4-(14′-trimethylammonium-3′-thia-1′-ketotetradecyl)-3-fluorophenylboronic acid bromide [Polymer 1]”, for which the “In Vivo Infusion Assay in Rats ED50 (mg/g fat) or estimate” value is 3 mg/g fat and the “In Vivo Infusion Assay in Rats Ed50 (mg/kg body wt) or estimate” value is recorded as 22.5 mg/kg body wt.
The corresponding values for “poly(N-diethanolaminopropyl)acrylamide conjugated with 4-(14′-trimethylammonium-3′-thia-1′-ketotetradecyl)-3-fluorophenylboronic acid bromide [Polymer 2]” are 4.5 mg/g fat and 33.8 mg/kg body wt.
As to “poly(N-diethanolaminopropyl)acrylamide conjugated with 4-(14′-trimethylammonium-3′-thia-1′-ketotetradecyl)phenylboronic acid bromide [Polymer 3]”, the “In Vivo Infusion Assay in Rats ED50 (mg/g fat) or estimate” value is given as 20 mg/g fat and the “In Vivo Infusion Assay in Rats Ed50 (mg/kg body wt) or estimate” value is 150 mg/kg body wt.
